Test results from ChEMBL document CHEMBL5030563, “Structure-Based Design of Dual-Acting Compounds Targeting Adenosine A2A Receptor and Histone Deacetylase as Novel Tumor Immunotherapeutic Agents” (J Med Chem, 2021).
pIC50: −log10 of the molar value.

Columns and labels:
Histone deacetylase 9 = Histone deacetylase 9 (Homo sapiens, UniProt Q9UKV0); assay: Inhibition of HDAC9 (unknown origin) assessed as release of 7-amino-4-methylcoumarin incubated in room temperature for 15 min measured by Spectra max microtitre plate reader
Chain of Histone deacetylase 9 (Q9UKV0 whole entry): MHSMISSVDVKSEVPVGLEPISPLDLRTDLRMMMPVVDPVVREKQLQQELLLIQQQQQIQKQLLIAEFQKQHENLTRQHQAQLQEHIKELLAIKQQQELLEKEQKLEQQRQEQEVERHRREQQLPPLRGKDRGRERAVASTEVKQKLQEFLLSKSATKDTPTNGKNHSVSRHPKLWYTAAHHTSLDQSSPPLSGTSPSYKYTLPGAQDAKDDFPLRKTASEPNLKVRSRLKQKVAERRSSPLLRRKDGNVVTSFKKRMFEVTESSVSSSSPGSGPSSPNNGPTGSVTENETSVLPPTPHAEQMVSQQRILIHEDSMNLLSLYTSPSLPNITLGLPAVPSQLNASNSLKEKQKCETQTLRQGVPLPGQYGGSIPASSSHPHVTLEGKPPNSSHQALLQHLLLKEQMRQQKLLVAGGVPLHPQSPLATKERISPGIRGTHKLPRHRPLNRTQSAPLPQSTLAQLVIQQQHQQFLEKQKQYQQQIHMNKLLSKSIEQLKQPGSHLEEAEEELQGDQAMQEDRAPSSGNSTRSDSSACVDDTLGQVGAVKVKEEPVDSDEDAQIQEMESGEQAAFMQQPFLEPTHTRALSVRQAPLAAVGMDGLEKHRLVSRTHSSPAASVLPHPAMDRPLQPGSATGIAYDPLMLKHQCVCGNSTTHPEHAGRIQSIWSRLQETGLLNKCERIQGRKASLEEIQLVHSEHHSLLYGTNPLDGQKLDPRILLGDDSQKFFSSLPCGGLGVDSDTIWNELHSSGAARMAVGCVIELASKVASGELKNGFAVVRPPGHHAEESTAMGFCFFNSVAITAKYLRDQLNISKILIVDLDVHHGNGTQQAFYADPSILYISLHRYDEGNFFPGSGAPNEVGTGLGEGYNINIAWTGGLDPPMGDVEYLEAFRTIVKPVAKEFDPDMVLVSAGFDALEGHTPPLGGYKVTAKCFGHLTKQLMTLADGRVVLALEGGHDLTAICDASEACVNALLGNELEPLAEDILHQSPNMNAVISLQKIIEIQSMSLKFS

[1] = MRT in ICR mouse at 5 mg/kg, iv up to 24 hrs by LC-MS/MS analysis; type: ADME, organism-based; settings: in vivo
[2] = AUC (0 to […]) in ICR mouse at 20 mg/kg, ip up to 24 hrs by LC-MS/MS analysis; type: ADME, organism-based; parameters: route intraperitoneal, dose 20 mg/kg, time <=24; settings: in vivo
Histone deacetylase 4 = Histone deacetylase 4 (Homo sapiens, UniProt P56524); assay: Inhibition of HDAC4 (unknown origin) assessed as release of 7-amino-4-methylcoumarin incubated in room temperature for 15 min measured by Spectra max microtitre plate reader
Chain of Histone deacetylase 4 (P56524 whole entry): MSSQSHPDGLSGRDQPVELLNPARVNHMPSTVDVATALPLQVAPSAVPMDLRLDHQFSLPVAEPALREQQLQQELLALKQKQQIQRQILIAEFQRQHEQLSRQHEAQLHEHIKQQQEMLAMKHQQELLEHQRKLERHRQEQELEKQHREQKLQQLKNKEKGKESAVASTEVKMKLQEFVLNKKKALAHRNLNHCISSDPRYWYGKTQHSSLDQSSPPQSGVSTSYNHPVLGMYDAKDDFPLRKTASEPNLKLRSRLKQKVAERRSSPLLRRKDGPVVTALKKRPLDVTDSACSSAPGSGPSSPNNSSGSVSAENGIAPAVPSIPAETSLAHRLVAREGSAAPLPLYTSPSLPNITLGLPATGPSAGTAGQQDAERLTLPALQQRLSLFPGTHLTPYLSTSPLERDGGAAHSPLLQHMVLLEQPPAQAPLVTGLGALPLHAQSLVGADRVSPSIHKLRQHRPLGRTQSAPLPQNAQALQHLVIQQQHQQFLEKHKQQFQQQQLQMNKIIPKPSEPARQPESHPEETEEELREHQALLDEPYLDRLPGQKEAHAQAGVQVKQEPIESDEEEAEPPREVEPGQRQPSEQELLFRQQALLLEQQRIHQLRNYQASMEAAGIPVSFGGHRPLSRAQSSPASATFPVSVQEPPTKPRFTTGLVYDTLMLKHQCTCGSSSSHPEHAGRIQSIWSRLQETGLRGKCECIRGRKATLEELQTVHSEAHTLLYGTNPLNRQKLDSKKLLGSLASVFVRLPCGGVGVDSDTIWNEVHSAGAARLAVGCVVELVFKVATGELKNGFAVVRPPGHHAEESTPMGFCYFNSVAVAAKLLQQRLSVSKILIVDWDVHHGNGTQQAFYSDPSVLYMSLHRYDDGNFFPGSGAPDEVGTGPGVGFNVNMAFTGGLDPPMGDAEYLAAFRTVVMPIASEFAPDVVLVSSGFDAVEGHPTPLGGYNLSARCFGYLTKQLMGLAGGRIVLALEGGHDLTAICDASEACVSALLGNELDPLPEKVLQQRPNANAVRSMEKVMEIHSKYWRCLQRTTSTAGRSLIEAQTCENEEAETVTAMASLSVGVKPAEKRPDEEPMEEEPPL

[3] = Half life in ICR mouse at 20 mg/kg, ip up to 24 hrs by LC-MS/MS analysis; type: ADME, organism-based; settings: in vivo
[4] = Bioavailability in ICR mouse at 20 mg/kg up to 24 hrs by LC-MS/MS analysis; type: ADME, organism-based; settings: in vivo
[5] = AUC (0 to infinity) in ICR mouse at 20 mg/kg, po by LC-MS/MS analysis; type: ADME, organism-based; parameters: time infinity, route oral, dose 20 mg/kg; settings: in vivo
[6] = Toxicity in C57BL/6 mouse assessed as loss in body weight at 30 to 60 mg/kg, ip, bid measured after 9 days; type: organism-based; settings: in vivo, 216 h, dose 30-60 mg/kg, time 9 day
[7] = AUC (0 to infinity) in ICR mouse at 5 mg/kg, iv up to 24 hrs by LC-MS/MS analysis; type: ADME, organism-based; parameters: route intravenous, dose 5 mg/kg, time <=24; settings: in vivo
Histone deacetylase 3 = Histone deacetylase 3 (Homo sapiens, UniProt O15379); assay: Inhibition of HDAC3 (unknown origin) assessed as release of 7-amino-4-methylcoumarin incubated in room temperature for 15 min measured by Spectra max microtitre plate reader
Chain of Histone deacetylase 3 (O15379 whole entry): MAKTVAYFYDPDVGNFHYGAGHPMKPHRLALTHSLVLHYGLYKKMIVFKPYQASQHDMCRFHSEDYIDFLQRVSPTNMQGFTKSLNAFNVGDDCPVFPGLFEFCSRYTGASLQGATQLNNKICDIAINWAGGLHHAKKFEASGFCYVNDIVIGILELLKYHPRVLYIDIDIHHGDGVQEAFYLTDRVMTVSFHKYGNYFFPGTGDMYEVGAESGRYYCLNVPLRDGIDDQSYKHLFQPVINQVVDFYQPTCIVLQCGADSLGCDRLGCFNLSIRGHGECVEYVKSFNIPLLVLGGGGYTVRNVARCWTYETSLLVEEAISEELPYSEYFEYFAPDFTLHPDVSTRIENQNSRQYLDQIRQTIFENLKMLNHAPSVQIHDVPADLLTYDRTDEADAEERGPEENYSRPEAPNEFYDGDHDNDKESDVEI

MC38 = assay: Inhibition of HDAC in mouse MC38 cells assessed as increase in acetyl-histone H4 measured after 24 hrs by Western blot analysis; type: cell-based
[8] = Tmax in ICR mouse at 20 mg/kg, po by LC-MS/MS analysis; type: ADME, organism-based; settings: in vivo
[9] = Oral bioavailability in ICR mouse at 20 mg/kg by LC-MS/MS analysis; type: ADME, organism-based; settings: in vivo
[10] = MRT in ICR mouse at 20 mg/kg, po by LC-MS/MS analysis; type: ADME, organism-based; settings: in vivo
Histone deacetylase 8 = target: T1, Histone deacetylase 8 (Homo sapiens, UniProt Q9BY41); assay: Inhibition of HDAC8 (unknown origin) assessed as release of 7-amino-4-methylcoumarin incubated in room temperature for 15 min measured by Spectra max microtitre plate reader
T1 sequence (Q9BY41 whole entry): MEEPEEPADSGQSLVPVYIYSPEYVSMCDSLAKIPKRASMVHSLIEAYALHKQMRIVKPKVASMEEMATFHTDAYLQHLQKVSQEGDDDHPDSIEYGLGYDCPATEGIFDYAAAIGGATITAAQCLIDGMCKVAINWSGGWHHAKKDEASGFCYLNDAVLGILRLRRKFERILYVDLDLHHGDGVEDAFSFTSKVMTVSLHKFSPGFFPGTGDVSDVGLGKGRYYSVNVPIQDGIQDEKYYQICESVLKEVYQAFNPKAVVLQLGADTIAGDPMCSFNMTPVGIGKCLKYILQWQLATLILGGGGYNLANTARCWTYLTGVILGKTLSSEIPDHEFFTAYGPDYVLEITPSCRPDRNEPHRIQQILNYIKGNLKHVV

[11] = AUC (0 to […]) in ICR mouse at 5 mg/kg, iv up to 24 hrs by LC-MS/MS analysis; type: ADME, organism-based; parameters: route intravenous, dose 5 mg/kg, time <=24; settings: in vivo
[12] = Cmax in ICR mouse at 20 mg/kg, po by LC-MS/MS analysis; type: ADME, organism-based; parameters: route oral, dose 20 mg/kg; settings: in vivo
Histone deacetylase 7 = target: T2, Histone deacetylase 7 (Homo sapiens, UniProt Q8WUI4); assay: Inhibition of HDAC7 (unknown origin) assessed as release of 7-amino-4-methylcoumarin incubated in room temperature for 15 min measured by Spectra max microtitre plate reader
T2 sequence (Q8WUI4 whole entry): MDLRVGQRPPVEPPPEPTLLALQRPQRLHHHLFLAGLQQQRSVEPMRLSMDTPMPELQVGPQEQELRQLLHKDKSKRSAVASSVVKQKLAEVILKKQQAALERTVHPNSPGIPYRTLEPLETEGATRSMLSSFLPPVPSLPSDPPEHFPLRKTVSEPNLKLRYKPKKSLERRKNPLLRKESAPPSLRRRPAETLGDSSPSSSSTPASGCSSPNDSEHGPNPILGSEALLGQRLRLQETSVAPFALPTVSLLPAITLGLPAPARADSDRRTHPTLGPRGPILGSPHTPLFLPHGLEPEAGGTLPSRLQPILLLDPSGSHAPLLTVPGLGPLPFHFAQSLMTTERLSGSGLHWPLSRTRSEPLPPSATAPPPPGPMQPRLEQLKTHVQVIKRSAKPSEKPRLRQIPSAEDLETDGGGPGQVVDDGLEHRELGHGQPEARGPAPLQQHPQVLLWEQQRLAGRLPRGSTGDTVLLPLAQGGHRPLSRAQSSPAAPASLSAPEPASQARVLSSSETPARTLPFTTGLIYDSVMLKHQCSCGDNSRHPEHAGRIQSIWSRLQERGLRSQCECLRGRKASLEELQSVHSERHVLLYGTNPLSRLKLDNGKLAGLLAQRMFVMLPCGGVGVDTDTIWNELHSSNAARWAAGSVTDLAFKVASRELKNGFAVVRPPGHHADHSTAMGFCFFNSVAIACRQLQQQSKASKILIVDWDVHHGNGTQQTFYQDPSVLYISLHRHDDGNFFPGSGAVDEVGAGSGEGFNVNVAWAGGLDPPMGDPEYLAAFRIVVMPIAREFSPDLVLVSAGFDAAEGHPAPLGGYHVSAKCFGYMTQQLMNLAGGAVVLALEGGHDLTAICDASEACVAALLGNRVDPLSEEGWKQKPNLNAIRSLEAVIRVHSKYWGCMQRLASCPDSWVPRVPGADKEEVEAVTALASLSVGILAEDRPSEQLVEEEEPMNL

[13] = Clearance in ICR mouse at 5 mg/kg, iv up to 24 hrs by LC-MS/MS analysis; type: ADME, organism-based; settings: in vivo
[14] = Volume of distribution in ICR mouse at 5 mg/kg, iv up to 24 hrs by LC-MS/MS analysis; type: ADME, organism-based; settings: in vivo

- pIC50 (Histone deacetylase 9): < 5.00
- MRT [1]: 20 min
- AUC(0-t) [2]: 6540 ng·h/mL
- pIC50 (Histone deacetylase 4): < 5.00
- half-life [3]: 113 min
- bioavailability [4]: 112%
- AUC(0-inf) [5]: 1810 ng·h/mL
- AUC(0-inf) [7]: 1470 ng·h/mL
- pIC50 (Histone deacetylase 3): 6.35
- Tmax [8]: 15 min
- bioavailability [9]: 30.3%
- MRT [10]: 84.6 min
- pIC50 (Histone deacetylase 8): < 5.00
- AUC(0-t) [11]: 1460 ng·h/mL
- Cmax [12]: 1590 ng/mL
- pIC50 (Histone deacetylase 7): < 5.00
- clearance [13]: 59 mL/min/kg
- Vd [14]: 1.19 L/kg
SMILES: Nc1ccccc1NC(=O)c1ccc(CCn2ncc3c2nc(N)n2nc(-c4ccco4)nc32)cc1
- Activity [6]: Toxic
- Activity (MC38): Dose-Dependent Effect
